From patent US20070293581A1, “Methods for Buccal, Lingual or Sublingual Dosing Regimens of Epinephrine for the Treatment of Allergic Emergencies” (priority 2006, published 2007)
Where two headings read alike, the source gives them in different places.

Tested on: patient experiencing an allergic emergency (symptoms of anaphylaxis)
Experimental: A patient experiencing an allergic emergency initiates treatment at the onset of shortness of breath by self administering 40 mg of epinephrine free base in a buccal dosage form.
A patient experiencing an allergic emergency initiates treatment at the onset of shortness of breath by self administering 40 mg of epinephrine free base in a buccal dosage form. […] After another approximately 5 minutes pass without amelioration of the symptoms of anaphylaxis, the patient self administers a third buccal dosage form comprising 20 mg of epinephrine free base.
A patient experiencing an allergic emergency initiates treatment at the onset of shortness of breath by self administering 40 mg of epinephrine free base in a lingual dosage form. After approximately 5 minutes pass without amelioration of the symptoms of anaphylaxis, the patient self administers a second lingual dosage form comprising 40 mg of epinephrine free base. After another approximately 5 minutes pass without amelioration of the symptoms of anaphylaxis, the patient self administers a third lingual dosage form comprising 20 mg of epinephrine free base.

Measured: patient's symptoms of anaphylaxis

CNC[C@H](O)c1ccc(O)c(O)c1 [epinephrine free base, epinephrine]
relieved: Example 1: buccal dosage form, 40 mg then second 40 mg after approx. 5 minutes, outcome within about five minutes after the second dose | Example 2: buccal dosage form, 40 mg, then 20 mg at approx. 5 minute intervals, outcome within about five minutes after the third dose | Example 3: lingual dosage form, 40 mg, then 20 mg at approx. 5 minute intervals, outcome within about five minutes after the third dose
